Laboratory results from publication PMC9920413, “New Bicyclic Pyridine-Based Hybrids Linked to the 1,2,3-Triazole Unit: Synthesis via Click Reaction and Evaluation of Neurotropic Activity and Molecular Docking” (Molecules, 2023).

What was measured:
[1] = tested on: thiosemicarbazide (TSC)-induced convulsions; test: Thiosemicarbazide (TSC) seizures; type: in vivo, mice
Method in brief: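 Mice received compounds 100 mg/kg i.p. in carboxymethylcellulose/Tween-80 suspension 45 min before thiosemicarbazide 18 mg/kg s.c. (0.5% solution). Anti-TSC activity judged by latency to onset of clonic seizures.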

[2] = tested on: maximal electroshock-induced seizures; test: Maximal electroshock-induced seizures (MES); type: in vivo; settings: mice, MES 50 mA, 0.2 s
Procedure: The study of the anticonvulsant activity of hybrids 7a–u was assessed by evaluating the antagonism to pentylenetetrazole (PTZ), thiosemicarbazide convulsive seizures, and maximal electroshock-induced seizures (MES). The PTZ-induced test is considered an experimental model for the clonic component of epilepsy seizures and the prognostic anxiolytic activity of the compounds. PTZ is a common convulsive agent used in animal models to investigate the mechanisms of seizures. The model of thiosemicarbazide (TSC) seizures (affecting the exchange of GABA) causes clonic seizures similar to pentylenetetrazole ones. The MES test is used as an animal model for the generalization of tonic seizures in epilepsy. The neurotoxicity and side effects of the compounds (movement coordination disorder, myorelaxation, and ataxia) were also studied on mice with the “rotating rod”[29] test.
The anticonvulsant effect of the newly synthesized compounds was investigated by tests comprising pentylenetetrazole, thiosemicarbazide convulsions, and maximal electroshock (MES). Outbred mice (weight 18–22 g) were used for the study. […] Seizures and clonic convulsions were recorded. […]
The MES test is used as an animal model for the generalized tonic seizures of epilepsy. […] The anticonvulsant properties of compounds were assessed by their prevention of the tonic-extensor phase of convulsions.

rats [3] = test: Electroshock retrograde amnesia, conditioned response of passive avoidance (CRPA); type: in vivo
Method in brief: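 Rats trained in light/dark passive avoidance with a single 0.4 mA foot shock in the dark compartment, then given maximal electroconvulsive shock (50 Hz, 0.2 s, corneal) immediately after to induce amnesia. Retention tested 24 h later; antiamnesic effect read as increased time in the light compartment versus controls.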

mouse = test: Elevated plus maze (EPM) test; type: in vivo; settings: 5 min
Method in brief: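 Mice dosed intraperitoneally with compound or reference before testing, controls receiving emulsifier. Anxiolytic effect scored as increased entries into and time in open arms without raised total motor activity; closed-arm time and center-entry attempts also recorded; significance at p < 0.05.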

rats [4] = test: Open field test; type: in vivo
Method in brief: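 Rats observed for 5 min in a modified open field whose floor is divided into squares with holes, in daytime under natural light. Horizontal movements, rearing and hole sniffing were counted; eight animals per compound, control and reference drug.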

mice [5] = test: Forced swimming test; settings: 6 min;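 note: mice made to swim in a water-filled glass vessel under natural light, with durations of active swimming and immobility recorded across the 6 min session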
Procedure: Forced swimming test. To assess “despair and depression”, the “compelling swimming” model was used. Experimental animals were forced to swim in a glass container (height 22 cm, diameter 14 cm), filled 1/3 with water. […] The latent period of immobilization, the total duration of active swimming and immobilization are fixed at 6 min (the experiments were conducted under natural light).

[6] = tested on: pentylenetetrazole (PTZ)-induced convulsions; test: Antagonism to pentylenetetrazole (PTZ) convulsions; type: in vivo
Method in brief: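 Outbred mice (18–22 g), six per dose, given compound or emulsifier vehicle; clonic seizures and convulsions after PTZ recorded over 1 h observation. ED50 derived by the Litchfield–Wilcoxon method.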

mice [7] = test: Rotating rod test (neurotoxicity, myorelaxation); type: in vivo; settings: i.p., myorelaxation in 50% of animals
Method in brief: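 Compounds given i.p. at 50 to 500 mg/kg; mice placed on a rubber-coated rod rotating at 5 rpm, counting animals unable to stay on for 2 min. TD50 derived by the Litchfield–Wilcoxon method.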

in vivo = settings: outbred, mouse, in vivo; mice, dead animals after 24 h
Method in brief: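 Compounds are given intraperitoneally to mice at 50 to 500 mg/kg, with reference drugs at anticonvulsant doses. Muscle relaxation is scored on a rod rotating at 5 rpm as the number of animals unable to stay on for 2 min. ED50, TD50 and LD50 come from the Litchfield and Wilcoxon method.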

[8] = Mus musculus, read-out: Latency of Convulsions, Induced by TSC, I (index of latent period of TSC seizures)

## CN1C(=O)CN=C(c2ccccc2)c2cc(Cl)ccc21 [Diazepam, diazepam, reference compound]
[1]; [8]
  response vs control in vivo at 2 mg/kg: 90%
[1]; mice, diazepam 2 mg/kg
  Latency of Convulsions, Induced by TSC, M ± M: 9.0 ± 2.5 min
  effect on the model of thiosemicarbazide (TSC) seizures, in words: not effective
[2]
  anticonvulsant effect in the MES test (protection from tonic and clonic seizures): did not exhibit an anticonvulsant effect
Rats [3]; 2 mg/kg, study for 5 min
  The Time Spent in the Light Chamber When Playing CRPA + MESH after 24 h, Second Day: 126.0 ± 6.5 s
  The Time Spent in the Light Chamber during the Training of the CRPA, First Day: 187.0 ± 6.7 s
Rats [3]; electroshock retrograde amnesia, CRPA
  antiamnestic effect, in words: did not have an antiamnestic effect
mouse; 2 mg/kg
  Number of Entries into the Closed Arms: 5.5 ± 1.1
  Time Spent in Closed Arms: 257.5 ± 25.2 s
  Time Spent in the Center: 42.5 ± 3.9 s
  Time Spent in the Open Arms: 57.0 ± 4.2 s
Rats [4]; 2 mg/kg
  Cells Examination, amount (absolute data during 5 min): 5.0 ±1.2
  Horizontal Displacement, amount (absolute data during 5 min): 33.6 ± 6.1
  Vertical Displacement, amount (absolute data during 5 min): 6.4 ± 1.4
Mice [5]; 2 mg/kg
  Total Time of Active Swimming: 336.0 ± 8.1 s
  Total Time of Immobilization: 24.0 ± 8.2 s
[6]; Mus musculus, read-out: ED50 (by PTZ antagonism)
  ED50: 0.5 mg/kg
[6]; therapeutic index TI = LD50/ED50
  TI: 360

## CCC1(C)CC(=O)NC1=O (centres unmarked) [Ethosuximide, ethosuximide, reference compound]
Mice [7]
  TD50: 520 (413 ÷ 655) mg/kg
In vivo
  LD50 at 24 h: 1320 mg/kg
[1]; [8]
  response vs control in vivo at 200 mg/kg: 170%
[1]; mice, ethosuximide 200 mg/kg
  Latency of Convulsions, Induced by TSC, M ± M: 17.0 ± 1.4 min
[2]
  anticonvulsant effect in the MES test (protection from tonic and clonic seizures): did not exhibit an anticonvulsant effect
mouse; 200 mg/kg
  Number of Entries into the Closed Arms: 8.1 ± 2.5
  Time Spent in Closed Arms: 247.2 ± 27.6 s
  Time Spent in the Center: 52.8 ± 4.7 s
Rats [4]; 200 mg/kg
  Cells Examination, amount (absolute data during 5 min): 0.6 ± 0.5
  Horizontal Displacement, amount (absolute data during 5 min): 26.8 ± 5.51
  Vertical Displacement, amount (absolute data during 5 min): 5.6 ± 1.8
Mice [5]; 200 mg/kg
  Total Time of Active Swimming: 262 ± 25.0 s
  Total Time of Immobilization: 98.0 ± 9.2 s
[6]; outbred, mouse, in vivo
  TI: 8.5
